Data on 25 compounds can be found in US20050148646A1, “Dicationic triaryl analogs as anti-protozoan agents” (priority 2003, published 2005).

Structures can show the parent of a compound that is named as a salt. Where two headings read alike, the source gives them in different places.

In data set [1] the test system is Plasmodium falciparum (P.f.). The experiment in a line: In vitro activity vs. P. falciparum. It is filed as cell-based.
Data set [2] relates to Trypanosoma brucei rhodesiense (T.b.r.). Kind of data set: In vitro activity vs. T. b. rhodesiense. It counts as cell-based.
In data set [3] the test system is virulent STIP900 strain of T.b.r. The experiment in a line: Mouse model of T.b.r. infection. It is filed as in vivo.
Setting [4] is: read-out: IC-50 values versus Plasmodium falciparum (p.f.).
Setting [5] is: read-out: IC-50 values versus Trypanosoma brucei rhodesiense (T.b.r.).

For the compound `N=C(N)c1ccc(-c2ccc(O)c(-c3nc4cc(C(=N)N)ccc4[nH]3)c2)cc1` [Compound 4, 2-(4′-carbamimidoyl-4-hydroxy-biphenyl-3-yl)-1H-benzimidazole-5-carboxamidine acetate salt], the IC50 was 0.0021 µM in data set [1] (Table 1, read-out: P.f. IC50); < 0.003 µM in data set [1] (setting [4]); 0.027 µM in data set [2] (Table 1, read-out: T.b.r. IC50).
On to `N=C(NO)c1cccc(-c2ccc(O)c(-c3nc4cc(C(=N)NO)ccc4[nH]3)c2)c1` [Compound 7, N-hydroxy-2-[4-hydroxy-3′-(N-hydroxycarbamimidoyl)-biphenyl-3-yl]-1H-benzimidazole-5-carboxamidine], for which the melting point lay within 352 to 355 °C.
As for `CC(=O)O.N=C(N)c1cccc(-c2ccc(O)c(-c3nc4cc(C(=N)N)ccc4[nH]3)c2)c1` [Compound 8, 2-(3′-carbamimidoyl-4-hydroxy-biphenyl-3-yl)-1H-benzimidazole-5-carboxamidine acetate salt], the melting point was 208 to 209 °C (dec.). In data set [1] (Table 1, read-out: P.f. IC50), the IC50 worked out at 0.034 µM. For the same compound, the IC50 in data set [2] (Table 1, read-out: T.b.r. IC50) is 0.213 µM.
As to `COc1cc(-c2ccc(C(=N)NO)cc2)cc(-c2nc3cc(C(=N)NO)ccc3[nH]2)c1O` [Compound 11, N-hydroxy-2-[4-hydroxy-4′-(N-hydroxycarbamimidoyl)-5-methoxy-biphenyl-3-yl]-1H-benzimidazole-5-carboxamidine], the melting point was in the range of 319 to 321 °C.
As for `CC(=O)O.COc1cc(-c2ccc(C(=N)N)cc2)cc(-c2nc3cc(C(=N)N)ccc3[nH]2)c1O` [Compound 12, 2-(4′-carbamimidoyl-4-hydroxy-5-methoxy-biphenyl-3-yl)-1H-benzimidazole-5-carboxamidine acetate salt], the melting point was 230 to 231 °C (dec.). Further, the IC50 in data set [1] (Table 1, read-out: P.f. IC50) turned out to be 0.131 µM. Besides, the IC50 in data set [2] (Table 1, read-out: T.b.r. IC50) was 0.031 µM.
`N=C(NO)c1ccc(-c2cccc(-c3nc4cc(C(=N)NO)ccc4[nH]3)c2O)cc1` [Compound 15, N-hydroxy-2-[2-hydroxy-4′-(N-hydroxycarbamimidoyl)-biphenyl-3-yl]-1H-benzimidazole-5-carboxamidine]: the melting point was 322 to 325 °C (dec.).
Consider `CC(=O)O.N=C(N)c1ccc(-c2cccc(-c3nc4cc(C(=N)N)ccc4[nH]3)c2O)cc1` [Compound 16, 2-(4′-carbamimidoyl-2-hydroxy-biphenyl-3-yl)-1H-benzimidazole-5-carboxamidine acetate salt], for which the melting point is 228 to 229.5 °C (dec.). Also, the IC50 in data set [1] (Table 1, read-out: P.f. IC50) is 0.131 µM. Besides, the IC50 in data set [2] (Table 1, read-out: T.b.r. IC50) amounted to 0.017 µM. The IC50 in data set [2] (setting [5]) was < 0.02 µM. Besides, in data set [3], the “cure of the virulent STIP900 strain of T.b.r. in a mouse model” value is on record as “cure”.
Turning to `COc1ccc(-c2ccc(C(=N)NO)cc2)cc1-c1nc2cc(C(=N)NO)ccc2[nH]1` [Compound 19, N-hydroxy-2-[4′-(N-hydroxycarbamimidoyl)-4-methoxy-biphenyl-3-yl]-1H-benzimidazole-5-carboxamidine], the melting point is > 340 °C.
`CC(=O)O.COc1ccc(-c2ccc(C(=N)N)cc2)cc1-c1nc2cc(C(=N)N)ccc2[nH]1` [Compound 20, 2-(4′-carbamimidoyl-4-methoxy-biphenyl-3-yl)-1H-benzimidazole-5-carboxamidine acetate salt] had a melting point of 220 to 221 °C. Besides, in data set [1] (Table 1, read-out: P.f. IC50), the IC50 came out at 0.04 µM. In addition, the IC50 in data set [2] (Table 1, read-out: T.b.r. IC50) amounted to 0.053 µM.
Consider `N=C(NO)c1ccc(-c2cccc(-c3nc4cc(C(=N)NO)ccc4[nH]3)c2)cc1` [Compound 23, N-hydroxy-2-[4′-(N-hydroxycarbamimidoyl)-biphenyl-3-yl]-1H-benzimidazole-5-carboxamidine], for which the melting point was in the range of 317 to 319 °C.
As to `N=C(N)c1ccc(-c2cccc(-c3nc4cc(C(=N)N)ccc4[nH]3)c2)cc1` [Compound 24, 2-(4′-carbamimidoyl-biphenyl-3-yl)-1H-benzimidazole-5-carboxamidine acetate salt], the IC50 is 0.0275 µM in data set [1] (Table 1, read-out: P.f. IC50); 0.0044 µM in data set [2] (Table 1, read-out: T.b.r. IC50); < 0.02 µM in data set [2] (setting [5]).
As to `Cc1cc(C(=N)NO)ccc1-c1cccc(-c2nc3cc(C(=N)NO)ccc3[nH]2)c1` [Compound 27, N-hydroxy-2-[4′-(N-hydroxycarbamimidoyl)-2′-methyl-biphenyl-3-yl]-1H-benzimidazole-5-carboxamidine], the melting point was 295 to 297 °C (dec.).
As for `CC(=O)O.Cc1cc(C(=N)N)ccc1-c1cccc(-c2nc3cc(C(=N)N)ccc3[nH]2)c1` [Compound 28, 2-(4′-carbamimidoyl-2′-methyl-biphenyl-3-yl)-1H-benzimidazole-5-carboxamidine acetate salt], the melting point fell in the range of 201 to 203 °C. Further, in data set [1] (Table 1, read-out: P.f. IC50), the IC50 came to 0.055 µM. In data set [2] (Table 1, read-out: T.b.r. IC50), the IC50 came to 0.023 µM.
In the case of `N=C(NO)c1ccc(-c2ccc(-c3nc4cc(C(=N)NO)ccc4[nH]3)c(F)c2)cc1` [Compound 31, 2-[3-fluoro-4′-(N-hydroxycarbamimidoyl)-biphenyl-4-yl]-N-hydroxy-1H-benzimidazole-5-carboxamidine], the melting point is 281 to 283 °C (dec.).
On to `CC(=O)O.N=C(N)c1ccc2[nH]c(-c3ccc(-c4ccc(C(=N)N)c(F)c4)cc3)nc2c1` [Compound 32, 2-(4′-carbamimidoyl-3′-fluoro-biphenyl-4-yl)-1H-benzimidazole-5-carboxamidine acetate salt], for which the melting point is 210 to 212 °C (dec.). Also, in data set [1] (Table 2, read-out: P.f. IC50), the IC50 stood at 0.0013 µM. Further, in data set [1] (setting [4]), the IC50 is < 0.003 µM. Also, the IC50 in data set [2] (Table 2, read-out: T.b.r. IC50) stood at 0.035 µM.
For the compound `CC(=O)O.COc1ccc(-c2ccc(C(=N)N)cn2)cc1-c1nc2cc(C(=N)N)ccc2[nH]1` [Compound 36, 2-[5-(5-carbamimidoyl-pyridin-2-yl)-2-methoxyphenyl]-1H-benzimidazole-5-carboxamidine acetate salt], the melting point is 231 to 232 °C (dec.). For the same compound, the IC50 in data set [1] (Table 1, read-out: P.f. IC50) is 0.364 µM. The IC50 in data set [2] (Table 1, read-out: T.b.r. IC50) is 0.014 µM. Besides, the IC50 in data set [2] (setting [5]) is < 0.02 µM.
With `N=C(NO)c1ccc(-c2cccc(-c3nc4cc(C(=N)NO)ccc4[nH]3)c2)nc1` [Compound 39, N-hydroxy-2-{3-[5-(N-hydroxycarbamimidoyl)-pyridin-2-yl]-phenyl}-1H-benzimidazole-5-carboxamidine], the melting point is 295 to 297 °C (dec.).
As to `CC(=O)O.N=C(N)c1ccc(-c2cccc(-c3nc4cc(C(=N)N)ccc4[nH]3)c2)nc1` [Compound 40, 2-[3-(5-Carbamimidoyl-pyridin-2-yl)-phenyl]-1H-benzimidazole-5-carboxamidine acetate salt], the melting point is 198 to 200 °C (dec.). Also, in data set [1] (Table 1, read-out: P.f. IC50), the IC50 came out at 0.096 µM. In data set [2] (Table 1, read-out: T.b.r. IC50), the IC50 came to 0.015 µM. For the same compound, in data set [2] (setting [5]), the IC50 is < 0.02 µM. Also, the “cure of the virulent STIP900 strain of T.b.r. in a mouse model” value in data set [3] is recorded as “cure”.
As to `N=C(NO)c1ccc(-c2ccc(-c3nc4cc(C(=N)NO)ccc4[nH]3)cc2)nc1` [Compound 43, N-hydroxy-2-{4-[5-(N-hydroxycarbamimidoyl)-pyridin-2-yl]-phenyl}-1H-benzimidazole-5-carboxamidine], the melting point was 305 to 308 °C (dec.).
In turn, `CC(=O)O.N=C(N)c1ccc(-c2ccc(-c3nc4cc(C(=N)N)ccc4[nH]3)cc2)nc1` [Compound 44, 2-[4-(5-carbamimidoyl-pyridin-2-yl)-phenyl]-1H-benzimidazole-5-carboxamidine acetate salt] displayed a melting point of 240 to 241 °C. The IC50 in data set [1] (Table 2, read-out: P.f. IC50) is 0.007 µM. In addition, the IC50 in data set [2] (Table 2, read-out: T.b.r. IC50) amounted to 0.041 µM.
In the case of `N=C(NO)c1ccc(-c2ccc(-c3nc4cc(C(=N)NO)ccc4[nH]3)cc2)c(OCc2ccccc2)c1` [Compound 47, 2-[2′-benzyloxy-4′-(N-hydroxycarbamimidoyl)-biphenyl-4-yl]-N-hydroxy-1H-benzimidazole-5-carboxamidine], the melting point is 250 to 253 °C (dec.).
For the compound `CC(=O)O.N=C(N)c1ccc(-c2ccc(-c3nc4cc(C(=N)N)ccc4[nH]3)cc2)c(O)c1` [Compound 48, 2-(4′-carbamimidoyl-2′-hydroxy-biphenyl-4-yl)-1H-benzimidazole-5-carboxamidine acetate salt], the melting point is 220 to 222 °C. In data set [1] (Table 2, read-out: P.f. IC50), the IC50 was determined as 0.0191 µM. In addition, the IC50 in data set [2] (Table 2, read-out: T.b.r. IC50) was 0.027 µM.
For the compound `Cc1cc(C(=N)NO)ccc1-c1ccc(-c2nc3cc(C(=N)NO)ccc3[nH]2)cc1` [Compound 51, N-hydroxy-2-[4′-(N-hydroxycarbamimidoyl)-2′-methyl-biphenyl-4-yl]-1H-benzimidazole-5-carboxamidine], the melting point is 300 to 302 °C.
`CC(=O)O.Cc1cc(C(=N)N)ccc1-c1ccc(-c2nc3cc(C(=N)N)ccc3[nH]2)cc1` [Compound 52, 2-(4′-carbamimidoyl-2′-methylbiphenyl-4-yl)-1H-benzimidazole-5-carboxamidine acetate salt] yielded a melting point of 193 to 195 °C. For the same compound, the IC50 in data set [2] (Table 2, read-out: T.b.r. IC50) turned out to be 0.006 µM. Also, the IC50 in data set [2] (setting [5]) is < 0.02 µM.
Consider `N=C(N)c1ccc(-c2ccc(-c3nc4ccc(C(=N)N)cc4[nH]3)cc2)cc1` [Compound 56], for which the IC50 is 0.0005 µM in data set [1] (Table 2, read-out: P.f. IC50); < 0.003 µM in data set [1] (setting [4]); 0.0077 µM in data set [2] (Table 2, read-out: T.b.r. IC50); < 0.02 µM in data set [2] (setting [5]).
